target: phosphorylated active hERK2 enzyme (Homo sapiens (Human), UniProt P28482); experiment: Active Human ERK2 (hERK2) Activity Assay (IMAP-FP); type: biochemical; conditions: Table 6, 0.5 nM hERK2, 30 μM ATP, 10 point titration, read-out: AERK2 IC50
Summary of the method: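 IMAP fluorescence-polarization kinase assay: 0.5 nM activated hERK2 with 900 nM unlabeled plus 80 nM labeled peptide and 30 μM ATP, reacted 60 min. Quenched with IMAP beads in binding buffer with 24 mM NaCl; FP read after 60 min equilibration.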

Sequence of phosphorylated active hERK2 enzyme (P28482 whole entry): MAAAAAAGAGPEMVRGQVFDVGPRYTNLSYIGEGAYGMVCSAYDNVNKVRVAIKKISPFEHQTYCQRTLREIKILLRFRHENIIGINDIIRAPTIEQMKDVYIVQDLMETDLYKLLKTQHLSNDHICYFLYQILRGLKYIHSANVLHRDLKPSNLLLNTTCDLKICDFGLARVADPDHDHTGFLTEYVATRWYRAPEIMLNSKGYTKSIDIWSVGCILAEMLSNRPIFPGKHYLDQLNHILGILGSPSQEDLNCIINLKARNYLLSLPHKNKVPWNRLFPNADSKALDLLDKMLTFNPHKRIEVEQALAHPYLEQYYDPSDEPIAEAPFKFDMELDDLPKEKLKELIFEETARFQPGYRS

Q: CC(C)(O)[C@@H](NC(=O)Nc1cc2[nH]nc(NC(=O)OC3CCOC3)c2cn1)c1ccc(F)cc1 (stereo partly drawn) [Example 402, tetrahydrofuran-3-yl [6-({[(1S)-1-(4-fluorophenyl)-2-hydroxy-2-methyl-propyl]carbamoyl}amino)-1H-pyrazolo[4,3-c]-pyridin-3-yl]-carbamate] was tested. Which IC50 did it give?
A: The IC50 was 2.9 nM.

Q: CC(C)OC(=O)Nc1n[nH]c2cc(NC(=O)N[C@@H](c3ccc(F)cc3)C(C)(C)O)ncc12 [Example 403, 1-methylethyl [6-({[(1S)-1-(4-fluorophenyl)-2-hydroxy-2-methyl-propyl]carbamoyl}amino)-1H-pyrazolo[4,3-c]-pyridin-3-yl]-carbamate] was tested. Which IC50 did it give?
A: Its IC50 is 1.1 nM.

Q: C[C@@H](NC(=O)Nc1cc2[nH]nc(NC(=O)OCCO)c2cn1)c1ccc(F)cc1 [Example 404, 2-hydroxyethyl [6-({[(1R)-1-(4-fluorophenyl)ethyl]carbamoyl}amino)-1H-pyrazolo[4,3-c]pyridin-3-yl]-carbamate] was tested. Which IC50 did it give?
A: Its IC50 is 5.3 nM.

Q: With C[C@@H](NC(=O)Nc1cc2[nH]nc(NC(=O)OCC(F)F)c2cn1)c1ccc(F)cc1 [Example 405, 2,2-difluoroethyl [6-({[(1R)-1-(4-fluorophenyl)ethyl]carbamoyl}amino)-1H-pyrazolo[4,3-c]pyridin-3-yl]-carbamate] as the compound, how does the IC50 read?
A: Its IC50 is 21.6 nM.

Q: Which IC50 does the source give for CC(C)(O)[C@@H](NC(=O)Nc1cc2[nH]nc(NC(=O)OCC(F)F)c2cn1)c1ccc(F)cc1 [Example 406, 2,2-difluoroethyl [6-({[(1S)-1-(4-fluorophenyl)-2-hydroxy-2-methyl-propyl]carbamoyl}amino)-1H-pyrazolo[4,3-c]-pyridin-3-yl]-carbamate] here?
A: The IC50 was 1.5 nM.

Q: Which IC50 does the source give for CC(Nc1n[nH]c2cc(NC(=O)N[C@H](C)c3ccccc3)ncc12)C(F)(F)F (stereo partly drawn) [Example 407, 1-[(1R)-1-phenylethyl]-3-{3-[(2,2,2-trifluoro-1-methylethyl)amino]-1H-pyrazolo[4,3-c]pyridin-6-yl}urea] here?
A: The IC50 was 2.4 nM.

Q: For C[C@@H](NC(=O)Nc1cc2[nH]nc(N3CCCC3=O)c2cn1)c1ccccc1 [Example 408, 1-[3-(2-oxopyrrolidin-1-yl)-1H-pyrazolo[4,3-c]-pyridin-6-yl]-3-[(1R)-1-phenylethyl]urea], which IC50 is on record?
A: Its IC50 is 101 nM.

Q: With C[C@@H](NC(=O)Nc1cc2[nH]nc(N3CCC(O)CC3)c2cn1)c1ccccc1 [Example 409, 1-[3-(4-hydroxypiperidin-1-yl)-1H-pyrazolo[4,3-c]-pyridin-6-yl]-3-[(1R)-1-phenylethyl]urea] as the compound, how does the IC50 read?
A: The IC50 was 2.4 nM.

Q: Which IC50 does the source give for COC[C@@H](NC(=O)Nc1cc2[nH]nc(N3CCC(O)CC3)c2cn1)c1ccccc1 [Example 410, 1-[3-(4-hydroxypiperidin-1-yl)-1H-pyrazolo[4,3-c]-pyridin-6-yl]-3-[(1S)-2-methoxy-1-phenylethyl]urea] here?
A: The IC50 was 1.2 nM.

Q: For CCNc1n[nH]c2cc(NC(=O)N[C@@H]3CCC[C@H]3OC)ncc12 [Example 411, 1-[3-(ethylamino)-1H-pyrazolo[4,3-c]pyridin-6-yl]-3-[(1R,2R)-2-methoxy-cyclopentyl]urea], which IC50 is on record?
A: The IC50 was 99.3 nM.

Q: For CCNc1n[nH]c2cc(NC(=O)NC(C(=O)N(CC)CC)c3ccc(F)cc3)ncc12 (centres unmarked) [Example 412, N,N-diethyl-2-({[3-(ethylamino)-1H-pyrazolo[4,3-c]-pyridin-6-yl]-carbamoyl}amino)-2-(4-fluoro-phenyl)acetamide], which IC50 is on record?
A: Its IC50 is 421 nM.

Q: With COC1CCN(c2n[nH]c3cc(NC(=O)N[C@H](C)c4ccccc4)ncc23)CC1 [Example 413, 1-[3-(4-methoxypiperidin-1-yl)-1H-pyrazolo[4,3-c]-pyridin-6-yl]-3-[(1R)-1-phenylethyl]urea] as the compound, how does the IC50 read?
A: Its IC50 is 4.5 nM.

Q: Which IC50 does the source give for CCNc1n[nH]c2cc(NC(=O)NC(C(=O)N(C)C)c3ccc(F)cc3)ncc12 (centres unmarked) [Example 414, 2-({[3-(ethylamino)-1H-pyrazolo[4,3-c]-pyridin-6-yl]-carbamoyl}amino)-2-(4-fluorophenyl)-N,N-dimethyl-acetamide] here?
A: Its IC50 is 413 nM.

Q: COC[C@@H](NC(=O)Nc1cc2[nH]nc(N3CCC(OC)CC3)c2cn1)c1ccccc1 [Example 415, 1-[(1S)-2-methoxy-1-phenylethyl]-3-[3-(4-methoxypiperidin-1-yl)-1H-pyrazolo[4,3-c]pyridin-6-yl]urea] was tested. Which IC50 did it give?
A: The IC50 was 1 nM.
